This passage reports IC50 results from patent publication US11155539B2, “4-pyridinylmethyl-morpholine derivatives and the use thereof as medicament” (Boehringer Ingelheim International GmbH, priority 2018, dated 2021).

The IC50 is the concentration needed to halve the response being measured.

The test has as its target T1, NMDA NR1/NR2B receptor (Homo sapiens, UniProt Q05586+Q13224).
T1 construct: host or cells: HEK293, tetracycline-inducible expression
Briefly: In vitro NMDA NR1/NR2B cell assay (FLIPR, intracellular calcium induced by glycine/glutamate). The class given is cell-based. Particulars: HEK293 cells expressing NMDA NR1/NR2B; 20 μM glycine, 1 μM glutamate; read-out: IC50 (in vitro NR2B affinity, FLIPR assay). A digest of the protocol:
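HEK293 cells with tetracycline-induced NR1/NR2B, induced 48 h, loaded with Fluo-8 for 60 min at room temperature, stimulated with 20 μM glycine plus 1 μM glutamate (final) in HEPES buffer pH 7.4. Compound added 2 min later at 0.9% DMSO; fluorescence at ~5 min normalised to DMSO and 1 μM reference NAM controls, IC50 by 4-parameter fit.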

T1 sequence (Q13224 27-1484, other chains not shown): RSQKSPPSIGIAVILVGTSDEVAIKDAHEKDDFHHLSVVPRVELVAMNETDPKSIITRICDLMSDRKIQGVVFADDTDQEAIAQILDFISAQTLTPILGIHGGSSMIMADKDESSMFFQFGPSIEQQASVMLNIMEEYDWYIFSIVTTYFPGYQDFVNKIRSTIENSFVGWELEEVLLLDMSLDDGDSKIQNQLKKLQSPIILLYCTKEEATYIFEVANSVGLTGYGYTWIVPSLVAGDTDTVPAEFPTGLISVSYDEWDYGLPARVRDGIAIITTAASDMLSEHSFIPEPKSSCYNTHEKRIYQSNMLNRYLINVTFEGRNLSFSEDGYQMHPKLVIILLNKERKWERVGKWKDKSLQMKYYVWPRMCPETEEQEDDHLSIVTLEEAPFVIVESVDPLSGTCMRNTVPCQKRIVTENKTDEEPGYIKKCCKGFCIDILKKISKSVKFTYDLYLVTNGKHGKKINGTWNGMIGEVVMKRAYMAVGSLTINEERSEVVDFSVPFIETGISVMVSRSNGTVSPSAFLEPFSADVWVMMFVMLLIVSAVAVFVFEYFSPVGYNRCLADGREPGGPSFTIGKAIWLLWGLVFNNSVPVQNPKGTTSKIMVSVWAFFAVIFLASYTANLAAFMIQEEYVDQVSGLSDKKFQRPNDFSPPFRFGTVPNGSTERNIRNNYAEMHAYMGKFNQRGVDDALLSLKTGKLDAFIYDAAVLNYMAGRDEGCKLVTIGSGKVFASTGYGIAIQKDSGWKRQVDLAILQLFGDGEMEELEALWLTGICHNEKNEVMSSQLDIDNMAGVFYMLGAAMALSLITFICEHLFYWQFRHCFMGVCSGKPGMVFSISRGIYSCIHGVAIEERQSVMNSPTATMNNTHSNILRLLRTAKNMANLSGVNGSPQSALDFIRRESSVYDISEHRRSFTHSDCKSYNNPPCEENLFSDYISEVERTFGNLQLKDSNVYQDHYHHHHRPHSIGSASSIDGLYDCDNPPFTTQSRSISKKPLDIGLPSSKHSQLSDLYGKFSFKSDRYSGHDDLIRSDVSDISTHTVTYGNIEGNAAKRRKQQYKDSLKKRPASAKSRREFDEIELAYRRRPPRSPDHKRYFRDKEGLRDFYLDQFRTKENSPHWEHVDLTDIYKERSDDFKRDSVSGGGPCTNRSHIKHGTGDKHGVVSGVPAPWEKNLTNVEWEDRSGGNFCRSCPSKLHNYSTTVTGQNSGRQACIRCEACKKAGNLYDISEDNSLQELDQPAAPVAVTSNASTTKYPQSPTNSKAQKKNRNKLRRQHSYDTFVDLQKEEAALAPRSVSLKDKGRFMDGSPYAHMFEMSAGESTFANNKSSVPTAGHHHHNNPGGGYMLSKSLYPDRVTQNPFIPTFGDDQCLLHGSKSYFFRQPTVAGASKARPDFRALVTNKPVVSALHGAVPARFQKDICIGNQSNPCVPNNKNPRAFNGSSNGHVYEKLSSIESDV

For the compound `CNC(=O)[C@@H]1CN(Cc2ccc(Oc3ccccc3Cl)nc2)CCO1` [Example 17], the IC50 is 0.188 µM. The same measure for `CNC(=O)[C@@H]1CN(Cc2ccc(Oc3ccccc3F)nc2)CCO1` [Example 19]: 0.199 µM; for `CNC(=O)[C@@H]1CN(Cc2ccc(Oc3ccc(C)cc3)nc2)CCO1` [Example 29]: 0.194 µM. As to `CNC(=O)[C@@H]1CN(Cc2ccc(Oc3ccc(F)cc3)cn2)CCO1` [Example 30], the IC50 turned out to be 0.454 µM.
